Data set [1] in a line: in vitro. The data set is classed as cell-based, rat (Sprague–Dawley). Conditions: Sprague-Dawley, rat. As to the method:
(§1) The haemolytic activity of the 24 structurally related peptides (Table 1) was evaluated in erythrocytes from four different species (human, canine, bovine and rat) employing standard methodology. The subsequent release of haemoglobin was used to assess haemolytic activity as function of peptide and peptidomimetic concentration, with concentrations ranging from 0.15 to 150 µM (Presented in whole in Supplementary information Table S1–S4).
(§2) Human and rat (Sprague–Dawley) blood samples were purchased by Bioreclamation IVT (Westbury, NY, USA), collected in tubes containing heparin as anticoagulant and stored at 4 °C before use. Dog and bovine whole blood was collected from in-house animals at Zoetis Animal Health, Kalamazoo, Michigan and stored at 4 °C in tubes containing heparin as anticoagulant. 10 mL of each whole blood sample were centrifuged at 1,500 × g for 5 min and the resulting plasma fraction was removed from the samples. The pellets were washed with an equal volume (10 mL) of saline, mixing by inversion. The centrifuging and washing steps were repeated 5 times. After the last washing step, a volume of PBS was added, and the resulting samples were diluted 1:10 with PBS to yield an RBC concentration of ~ 5 × 10^8 RBC/mL. The assay was performed in a 384-well polypropylene microplate (Greiner 784201, Greiner Bio-One International, GMBH) through a Bravo Liquid Handling Platform 384 system (Agilent Technologies, Santa Clara, CA, USA) according to the previously published procedures. The compounds were tested in serial 1:1 dilutions in PBS, with final concentrations ranging from 150 to 1.2 µM. Melittin was used as reference lytic peptide. 1% TritonX100 and PBS were used as positive and negative (diluent) controls, respectively. The final concentrations were obtained by adding to the wells 7 µL of each solution, melittin or PBS, followed by 63 µL of RBCs to each well. The plate was sealed, shaken on a plate shaker for 20 s, incubated for one hour at 37 °C. Finally, it was centrifuged at 1,500 × g for 5 min at room temperature. 60 µL of supernatants were removed from all plate wells via a Bravo 384 robot and transferred to a flat-bottomed 384-well plate (Greiner UV-Star #7810801, Greiner Bio-One International, GMBH). The plate was centrifuged at 1,000 g for 1 min to remove air bubbles and optical density was measured at 405 nm using a plate reader. Percentage of haemolysis was calculated with the following equation: %haemolysis=(absorbance of test sample)-absorbance of diluent/absorbance of positive control-absorbance of diluent×100.

In another data set the test system is rat erythrocytes. As to the kind of experiment: in vitro. The data set is classed as cell-based, rat (Sprague–Dawley). Conditions: for IC10 haemolysis: rat erythrocytes; for IC50: red cells of rat. As to the method: as §1, §2
A short description of data set [2]: in vitro. It is filed as cell-based, dog. Conditions: dog. As to the method: as §1, §2
The subject of another data set is canine erythrocytes. As to the kind of experiment: in vitro. It is filed as cell-based, dog. The settings on record: for IC10 haemolysis: canine erythrocytes; for IC50: red cells of canine. As to the method: as §1, §2
The subject of a further data set is Pseudomonas aeruginosa. Also noted: method as in PMID 30842436. Conditions: cited from earlier work.
In a further data set the test system is Staphylococcus aureus. Further details: method as in PMID 30842436. Conditions: cited from earlier work.
Data set [3] deals with Staphylococcus pseudintermedius. Conditions: cited from earlier work.
Data set [4] in a line: in vitro. It is filed as cell-based, bovine. The settings on record: bovine. As to the method: as §1, §2
Another data set has as its system bovine erythrocytes. Put plainly: in vitro. The data set is classed as cell-based. The settings on record: bovine erythrocytes. As to the method: as §1, §2
The next data set deals with human erythrocytes. As to the kind of experiment: in vitro. The data set is classed as cell-based. Conditions: for IC10 haemolysis: human erythrocytes; for IC50: red cells of human. As to the method:
as §1, §2

The nature of data set [5]: in vitro. The data set is classed as cell-based, human. Conditions: human. As to the method: as §1, §2

Consider six molecules from publication PMC7414031, “Correlation between hemolytic activity, cytotoxicity and systemic in vivo toxicity of synthetic antimicrobial peptides” (Scientific Reports, 2020).

The structures appear in SMILES notation. In brackets after ≈: the same amount, converted by molar mass. Peptide text beside a SMILES is read from it. A value given as a limit tells only on which side of the number the result lay.

For orientation: IC50 means the concentration needed to halve the response being measured. A lower IC50 goes with inhibition by little substance. As for `CC(C)C[C@H](NC(=O)[C@H](CCCCN)NC(=O)[C@H](Cc1cccc2ccccc12)NC(=O)[C@H](Cc1ccccc1)NC(=O)[C@@H](N)Cc1cccc2ccccc12)C(=O)N[C@@H](CCCCN)C(=O)N[C@@H](CCCCN)C(N)=O` [Compound 16, (1-Nal)Ala-Phe-(1-Nal)Ala-Lys-Leu-Lys-Lys] (HELM PEPTIDE1{[N[C@@H](Cc1cccc2ccccc12)C(=O)[*:2]].F.[O=C([C@H](Cc1cccc2ccccc12)N[*:1])[*:2]].K.L.K.K.[am]}$$$$V2.0), the hemolysis at 1 h, 150 µM in “in vitro [1]” amounted to 11%; in “in vitro [2]”, 27.7%; in “in vitro [4]”, 30.6%; in “in vitro [5]”, 55.5%. The IC10 haemolysis in the data set with rat erythrocytes was 145.0 µM; in the data set on canine erythrocytes, 16.4 µM; in the data set with bovine erythrocytes, 45.2 µM; in the data set with human erythrocytes it was 47.4 µM. The IC50 was greater than 150 µM in the data set on rat erythrocytes, greater than 150 µM in the data set on canine erythrocytes and 134 µM with human erythrocytes. Further, the “MIC against Pseudomonas aeruginosa” value in the data set with Pseudomonas aeruginosa is on record as 64 µg/mL (≈ 60.6 µM). Besides, the “MIC against Staphylococcus aureus” value in the data set with Staphylococcus aureus was 16 to 32 µg/mL. Further, the “MIC against Staphylococcus pseudintermedius” value in [3] was 8 to 16 µg/mL.
For the molecule `CC(C)C[C@@H](NC(=O)[C@H](CCCCN)NC(=O)[C@@H](N)CCCCN)C(=O)N[C@@H](CCCCN)C(=O)N[C@H](Cc1cccc2ccccc12)C(=O)N[C@H](Cc1ccccc1)C(=O)N[C@H](Cc1cccc2ccccc12)C(N)=O` [Compound 10, Lys-Lys-Leu-Lys-(1-Nal)Ala-Phe-(1-Nal)Ala] (HELM PEPTIDE1{K.K.[dL].K.[O=C([C@@H](Cc1cccc2ccccc12)N[*:1])[*:2]].[dF].[O=C([C@@H](Cc1cccc2ccccc12)N[*:1])[*:2]].[am]}$$$$V2.0), the hemolysis at 1 h, 150 µM in “in vitro [1]” was less than 8%; in “in vitro [2]”, 36.3%; in the data set “in vitro [4]”, less than 8%; in “in vitro [5]”, less than 8%. Moreover, the IC10 haemolysis with rat erythrocytes is recorded as greater than 150 µM; with canine erythrocytes it was 43.4 µM; with human erythrocytes, greater than 150 µM. The IC50 with rat erythrocytes, with canine erythrocytes and in the data set on human erythrocytes was greater than 150 µM in each case. In addition, in the data set on Pseudomonas aeruginosa, the “MIC against Pseudomonas aeruginosa” value is 16 to 32 µg/mL. For the same molecule, in the data set with Staphylococcus aureus, the “MIC against Staphylococcus aureus” value is reported as 16 µg/mL (≈ 15.1 µM). The “MIC against Staphylococcus pseudintermedius” value in [3] was 4 to 8 µg/mL.
`CC(C)C[C@@H](NC(=O)[C@H](CCCCN)NC(=O)[C@@H](Cc1ccc2ccccc2c1)NC(=O)[C@@H](Cc1ccccc1)NC(=O)[C@H](N)Cc1ccc2ccccc2c1)C(=O)N[C@@H](CCCCN)C(=O)N[C@@H](CCCCN)C(N)=O` [Compound 3, (2-Nal)Ala-Phe-(2-Nal)Ala-Lys-Leu-Lys-Lys] (HELM PEPTIDE1{[N[C@H](Cc1ccc2ccccc2c1)C(=O)[*:2]].[dF].[O=C([C@@H](Cc1ccc2ccccc2c1)N[*:1])[*:2]].K.[dL].K.K.[am]}$$$$V2.0): the hemolysis at 1 h, 150 µM in the data set “in vitro [1]” is less than 8%; in “in vitro [2]” it was 10.5%; in “in vitro [4]” it was less than 8%; in the data set “in vitro [5]” it was less than 8%. In addition, the figures for the IC10 haemolysis in the data set on rat erythrocytes, with canine erythrocytes and with human erythrocytes were greater than 150 µM, 118.3 µM and greater than 150 µM, respectively. Moreover, the IC50 in the data set with rat erythrocytes, in the data set with canine erythrocytes and in the data set on human erythrocytes was greater than 150 µM throughout. Moreover, in the data set on Pseudomonas aeruginosa, the “MIC against Pseudomonas aeruginosa” value is given as greater than 64 µg/mL. Besides, the “MIC against Staphylococcus aureus” value in the data set on Staphylococcus aureus is 32 to 64 µg/mL. For the same molecule, the “MIC against Staphylococcus pseudintermedius” value in [3] is 16 µg/mL (≈ 15.1 µM).
For the molecule `CC(C)C[C@H](NC(=O)[C@H](CCCCN)NC(=O)[C@H](CCCCN)NC(=O)[C@@H](N)CCCCN)C(=O)N[C@@H](Cc1cccc2ccccc12)C(=O)N[C@@H](Cc1ccc(O)cc1)C(=O)N[C@@H](Cc1cccc2ccccc12)C(N)=O` [Compound 19, Lys-Lys-Lys-Leu(1-Nal)Ala-Tyr-(1-Nal)Ala] (HELM PEPTIDE1{K.K.K.L.[O=C([C@H](Cc1cccc2ccccc12)N[*:1])[*:2]].Y.[O=C([C@H](Cc1cccc2ccccc12)N[*:1])[*:2]].[am]}$$$$V2.0), the hemolysis at 1 h, 150 µM in the data set “in vitro [1]” is 101%; in “in vitro [2]”, 101%; in “in vitro [4]” it was less than 8%; in “in vitro [5]” it was 82.7%. Also, the “Haemolysis at 80 µM (in words)” value with rat erythrocytes, in the data set with canine erythrocytes and with human erythrocytes was “near total haemolysis” in each case. Moreover, the IC10 haemolysis is 45.0 µM with rat erythrocytes, 13.2 µM in the data set with canine erythrocytes and 13.5 µM in the data set with human erythrocytes. Also, the IC50 in the data set with rat erythrocytes was 74.9 µM; with canine erythrocytes, 20.8 µM; with human erythrocytes, 51.1 µM. For the same molecule, in the data set with Pseudomonas aeruginosa, the “MIC against Pseudomonas aeruginosa” value is greater than 64 µg/mL. Further, in the data set with Staphylococcus aureus, the “MIC against Staphylococcus aureus” value is greater than 64 µg/mL.
For the molecule `CCCC[C@H](NC(=O)[C@H](CCCCN)NC(=O)[C@H](CCCCN)NC(=O)[C@@H](N)CCCCN)C(=O)N[C@@H](Cc1ccc2ccccc2c1)C(=O)N[C@@H](Cc1ccc(O)cc1)C(=O)N[C@@H](Cc1ccc2ccccc2c1)C(N)=O` [Compound 22, Lys-Lys-Lys-Nle-(2-Nal)Ala-Tyr-(2-Nal)Ala] (HELM PEPTIDE1{K.K.K.[Nle].[O=C([C@H](Cc1ccc2ccccc2c1)N[*:1])[*:2]].Y.[O=C([C@H](Cc1ccc2ccccc2c1)N[*:1])[*:2]].[am]}$$$$V2.0), the hemolysis at 1 h, 150 µM is 24.2% in “in vitro [1]”, 83% in “in vitro [2]”, less than 8% in “in vitro [4]” and 23.7% in “in vitro [5]”. Also, the IC10 haemolysis with rat erythrocytes came to 83.0 µM; in the data set on canine erythrocytes, 30.9 µM; in the data set on human erythrocytes it was 88.3 µM. Also, the 50% inhibitory concentration (IC50) in the data set with rat erythrocytes is greater than 150 µM; in the data set with canine erythrocytes it was 71.2 µM; in the data set on human erythrocytes, greater than 150 µM. In addition, the “MIC against Pseudomonas aeruginosa” value in the data set on Pseudomonas aeruginosa was 64 µg/mL (≈ 59.7 µM). In the data set with Staphylococcus aureus, the “MIC against Staphylococcus aureus” value is recorded as 64 µg/mL (≈ 59.7 µM). For the same molecule, the “MIC against Staphylococcus pseudintermedius” value in data set [3] is 2 to 4 µg/mL.
As for `CC(C)C[C@@H](NC(=O)[C@H](CCCCN)NC(=O)[C@H](CCCCN)NC(=O)[C@@H](N)CCCCN)C(=O)N[C@H](Cc1ccc2ccccc2c1)C(=O)N[C@H](Cc1ccccc1)C(=O)N[C@H](Cc1ccc2ccccc2c1)C(N)=O` [Compound 12, Lys-Lys-Lys-Leu-(2-Nal)Ala-Phe-(2-Nal)Ala] (HELM PEPTIDE1{K.K.K.[dL].[O=C([C@@H](Cc1ccc2ccccc2c1)N[*:1])[*:2]].[dF].[O=C([C@@H](Cc1ccc2ccccc2c1)N[*:1])[*:2]].[am]}$$$$V2.0), the hemolysis at 1 h, 150 µM in “in vitro [1]” was 17.9%; in the data set “in vitro [2]” it was 50.2%; in the data set “in vitro [4]”, less than 8%; in “in vitro [5]”, 43.5%. The results for the IC10 haemolysis in the data set with rat erythrocytes, in the data set with canine erythrocytes and with human erythrocytes were 105.8 µM, 29.3 µM and 34.6 µM, respectively. The half-inhibitory concentration (IC50) in the data set on rat erythrocytes, in the data set on canine erythrocytes and in the data set with human erythrocytes was greater than 150 µM in each case. The “MIC against Pseudomonas aeruginosa” value in the data set with Pseudomonas aeruginosa is listed as 32 µg/mL (≈ 30.3 µM). Further, the “MIC against Staphylococcus aureus” value in the data set with Staphylococcus aureus was 8 to 16 µg/mL. In data set [3], the “MIC against Staphylococcus pseudintermedius” value is 2 to 4 µg/mL.
